Assay [1] relates to lncap (prostate cancer cells). Description: MTT cancer cell growth inhibition. In kind it is cell-based. As to conditions: MTT, 72 hours incubation, read-out: GI50 lnca. The method in brief:
(§1)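 Seed 1500 cells/well, incubate overnight. Add compound, 10^−5 to 10^−10 M final, n=3; culture 72 h, 37° C., 5% CO2. Add MTT, 4 h. Discard supernatant, dissolve in DMSO. Read 570 nm; calculate viability and GI50.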

Assay [2] relates to K562 (human leukemia cells). Nature of the assay: MTT cancer cell growth inhibition. In kind it is cell-based. The following applies: Homo sapiens, K562, 72 h, MTT, 72 hours incubation, K562 cells; read-out: GI50 K562. The gist of the method: as §1
The subject of assay [3] is MOLT-4 (human acute lymphoblastic leukemia cells). Description: MTT cancer cell growth inhibition. In kind it is cell-based. The following applies: MTT, 72 hours incubation, read-out: GI50 Mol. The method in brief: as §1
Assay [4] concerns U937 (human leukemia cells). Nature of the assay: MTT cancer cell growth inhibition. In kind it is cell-based. The following applies: Homo sapiens, U-937, 72 h, MTT, 72 hours incubation, read-out: GI50 U93. The method in brief: as §1
Assay [5] relates to SGC-7901 (human gastric cancer cells). Nature of the assay: MTT cancer cell growth inhibition. In kind it is cell-based. As to conditions: MTT, 72 hours incubation, SGC-7901 cells, read-out: GI50 SGC-7901. The method in brief: as §1
The test system of assay [6] is A549 (human lung cancer cells). Description: MTT cancer cell growth inhibition. As to conditions: Homo sapiens, A549, 72 h, MTT, 72 hours incubation, read-out: GI50 A54. In kind it is cell-based. The gist of the method: as §1
Assay [7] has as its system N-87 (human gastric cancer cells). Nature of the assay: MTT cancer cell growth inhibition. As to conditions: Homo sapiens, 72 h, MTT, 72 hours incubation, N-87 cells; read-out: GI50 N-87. In kind it is cell-based. The gist of the method: as §1
In assay [8] the test system is H1975 (non-small cell lung adenocarcinoma). Description: MTT cancer cell growth inhibition. Format: cell-based. The following applies: MTT, 72 hours incubation, H1975 cells, read-out: GI50 H1975. The gist of the method:
as §1

The subject of assay [9] is MCF-7 (human breast cancer cells). Description: MTT cancer cell growth inhibition. Format: cell-based. As to conditions: Homo sapiens, MCF7, 72 h, 72 hours incubation, read-out: GI50 MCF. The gist of the method: as §1
In assay [10] the test system is PANC-1 (Pac-1, human pancreatic cancer cells). Description: MTT cancer cell growth inhibition. In kind it is cell-based. As to conditions: MTT, 72 hours incubation, read-out: GI50 PAN. The method in brief:
as §1

The test system of assay [11] is MDA-MB-231 (breast cancer cells). Description: MTT cancer cell growth inhibition. Format: cell-based. The gist of the method: as §1
The test system of assay [12] is HT1080 (human fibrosarcoma cells). Nature of the assay: MTT cancer cell growth inhibition. In kind it is cell-based. The following applies: MTT, 72 hours incubation, read-out: GI50 HT1. The method in brief: as §1
For assay [13], the system named is Bel-7402 (human hepatoma cells). Description: MTT cancer cell growth inhibition. As to conditions: MTT, 72 hours incubation, Bel-7402 cells, read-out: GI50 Bel-7402. In kind it is cell-based. The gist of the method:
as §1

Assay [14] concerns Huh-7 (human hepatoma cells). Nature of the assay: MTT cancer cell growth inhibition. Format: cell-based. As to conditions: Homo sapiens, Huh-7, 72 h, MTT, 72 hours incubation, Huh-7 cells; read-out: GI50 Huh-7. The gist of the method:
as §1

In assay [15] the test system is DU145 (human prostate cancer cells). Nature of the assay: MTT cancer cell growth inhibition. As to conditions: Homo sapiens, DU-145, 72 h, MTT, 72 hours incubation, read-out: GI50 Du1. In kind it is cell-based. The gist of the method: as §1
The test system of assay [16] is BGC-823 (human gastric cancer cells). Description: MTT cancer cell growth inhibition. As to conditions: Homo sapiens, BGC-823, 72 h, MTT, 72 hours incubation, read-out: GI50 BG. Format: cell-based. The gist of the method: as §1
The test system of assay [17] is HCC827 (human non-small cell lung cancer cells). Nature of the assay: MTT cancer cell growth inhibition. In kind it is cell-based. As to conditions: MTT, 72 hours incubation, HCC827 cells, read-out: GI50 HCC827. The method in brief: as §1
Assay [18] deals with KBM5-T315I (human chronic myelogenous leukemia). Description: MTT cancer cell growth inhibition. Format: cell-based. The following applies: Homo sapiens, 72 h, MTT, 72 hours incubation, KBM5-T315I cells; read-out: GI50 KBM5-T315I. The gist of the method:
as §1

Assay [19] concerns KBM-5 (human chronic myelogenous leukemia). Nature of the assay: MTT cancer cell growth inhibition. Format: cell-based. As to conditions: MTT, 72 hours incubation, KBM-5 cells, read-out: GI50 KBM-5. The method in brief:
as §1

The subject of assay [20] is Hela (human cervical cancer cells). Nature of the assay: MTT cancer cell growth inhibition. Format: cell-based. The following applies: MTT, 72 hours incubation, read-out: GI50 Hela. The method in brief:
as §1

A further assay addresses T1, HDAC7 (Homo sapiens, UniProt Q8WUI4).
T1 sequence (Q8WUI4 1-952): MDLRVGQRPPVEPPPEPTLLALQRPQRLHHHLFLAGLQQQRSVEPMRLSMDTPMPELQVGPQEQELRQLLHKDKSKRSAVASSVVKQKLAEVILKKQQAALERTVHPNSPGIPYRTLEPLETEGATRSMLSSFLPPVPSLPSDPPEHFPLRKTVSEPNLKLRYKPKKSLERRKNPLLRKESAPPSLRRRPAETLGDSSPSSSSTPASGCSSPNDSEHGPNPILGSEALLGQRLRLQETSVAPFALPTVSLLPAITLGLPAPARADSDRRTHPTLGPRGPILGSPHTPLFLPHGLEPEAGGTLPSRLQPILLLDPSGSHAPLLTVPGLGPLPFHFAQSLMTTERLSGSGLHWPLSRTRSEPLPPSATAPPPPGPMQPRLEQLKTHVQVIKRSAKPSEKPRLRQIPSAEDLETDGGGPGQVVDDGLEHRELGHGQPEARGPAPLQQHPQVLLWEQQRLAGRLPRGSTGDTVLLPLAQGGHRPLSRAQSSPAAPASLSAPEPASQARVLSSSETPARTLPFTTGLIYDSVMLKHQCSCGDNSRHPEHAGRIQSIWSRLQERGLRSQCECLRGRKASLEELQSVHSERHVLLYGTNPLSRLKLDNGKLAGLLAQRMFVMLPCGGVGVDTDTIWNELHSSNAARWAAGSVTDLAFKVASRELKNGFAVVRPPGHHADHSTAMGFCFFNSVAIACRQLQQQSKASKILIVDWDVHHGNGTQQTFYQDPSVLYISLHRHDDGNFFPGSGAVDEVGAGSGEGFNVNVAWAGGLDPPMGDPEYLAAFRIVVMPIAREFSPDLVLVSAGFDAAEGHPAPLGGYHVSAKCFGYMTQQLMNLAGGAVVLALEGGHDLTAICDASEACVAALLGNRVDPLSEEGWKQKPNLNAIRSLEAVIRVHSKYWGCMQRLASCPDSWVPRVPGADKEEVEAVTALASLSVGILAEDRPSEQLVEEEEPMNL
Nature of the assay: HDAC biochemical activity measurement (fluorescent substrate deacetylation).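 Further: fluorogenic deacetylation assay using acetyl-lysine substrate at 20 µM, enzyme and compound incubated 30 min at 37 °C, then developer added, fluorescence read at 360/460 nm.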 As to conditions: HDAC7; 37° C. 30 minutes.

[21] abbreviates: Homo sapiens, MDA-MB-231, 72 h, read-out: GI50 MDA-MB-231, MTT, 72 hours incubation, MDA-MB-231 cells.

Read-outs that look alike come from different tables or passages of the source.

Consider 4 compounds from patent US10065990B2, “Cyclic peptide compound, and preparation method, pharmaceutical composition and use thereof” (HANGZHOU GUANYU BIO-MEDICAL CO., LTD, priority 2013, dated 2018).

Turning to `C/C=C1\NC(=O)c2ccc(SC)c(n2)CNC(=O)C[C@@H](/C=C/CCSC(C)=O)OC(=O)[C@H](Cc2cccc3ccccc23)NC1=O` [Compound 200], the GI50 in assay [1] (Homo sapiens, LNCaP, 72 h, lncap cells) was 80 nM; in [2] it was 107 nM; in assay [3] (Homo sapiens, MOLT-4, 72 h, MOLT-4 cells) it was 40 nM; in [4] (U937 cells), 50 nM; in [5] (Homo sapiens, SGC-7901, 72 h) it was 58 nM; in assay [6] (A549 cells) it was 20 nM. In addition, the concentration for 50% growth inhibition (GI50) in assay [7] came to 39 nM; in [8] (Homo sapiens, NCI-H1975, 72 h), 59 nM; in [9] (MCF-7 cells), 30 nM; in assay [10] (Homo sapiens, PANC-1, 72 h, PANC-1 cells) it was 70 nM; in assay [11] (setting [21]), 46 nM; in assay [12] (Homo sapiens, HT-1080, 72 h, HT1080 cells) it was 40 nM. Besides, the GI50 in [13] (Homo sapiens, Bel-7402, 72 h) came out at 26 nM; in [14] it was 26 nM; in assay [15] (DU145 cells), 60 nM; in assay [16] (BGC-823 cells), 80 nM; in assay [17] (Homo sapiens, HCC827, 72 h) it was 45 nM; in assay [18] it was 34 nM. Moreover, the GI50 in assay [19] (Homo sapiens, KBM5, 72 h) was 28 nM; in [20] (Homo sapiens, HeLa, 72 h, Hela cells), 30 nM. Besides, the “IC50 HDAC7” value on HDAC7 is recorded as “no activity”.

In the case of `C/C=C1\NC(=O)c2nc(ccc2F)CNC(=O)C[C@@H](/C=C/CCS)OC(=O)[C@H](CCCCNC(=O)OCC2c3ccccc3-c3ccccc32)NC1=O` [Compound 120], the 50% growth inhibitory concentration (GI50) in assay [1] (Homo sapiens, LNCaP, 72 h) was found to be 30 nM; in [2], 23 nM; in assay [3] (Homo sapiens, MOLT-4, 72 h) it was 20 nM; in assay [4] it was 10 nM; in assay [5] (Homo sapiens, SGC-7901, 72 h) it was 84 nM; in assay [6] it was 50 nM. The GI50 was 53 nM in assay [7]; 35 nM in assay [8] (Homo sapiens, NCI-H1975, 72 h); 100 nM in [9]; 100 nM in [10] (Homo sapiens, PANC-1, 72 h); 16 nM in [11] (setting [21]); 10 nM in [12] (Homo sapiens, HT-1080, 72 h). The GI50 in [13] (Homo sapiens, Bel-7402, 72 h) is 66 nM; in assay [14] it was 71 nM; in assay [15], 50 nM; in assay [16] it was 30 nM; in assay [17] (Homo sapiens, HCC827, 72 h) it was 55 nM; in [18], 33 nM. Moreover, the concentration for 50% growth inhibition (GI50) in assay [19] (Homo sapiens, KBM5, 72 h) worked out at 45 nM; in [20] (Homo sapiens, HeLa, 72 h) it was 30 nM. In addition, the “IC50 HDAC7” value on HDAC7 is given as “no activity”.

Regarding `C/C=C1\NC(=O)c2cc(F)cc(n2)CNC(=O)C[C@@H](/C=C/CCSC(=O)CCCCCCC)OC(=O)[C@H](C(C)C)NC1=O` [Example 31], the concentration for 50% growth inhibition (GI50) in assay [1] (Homo sapiens, LNCaP, 72 h) stood at 10 nM; in assay [2], 27 nM; in assay [3] (Homo sapiens, MOLT-4, 72 h) it was 10 nM; in assay [4] it was 40 nM; in assay [5] (Homo sapiens, SGC-7901, 72 h), 77 nM; in [6], 70 nM. Besides, the GI50 in assay [7] stood at 52 nM; in assay [8] (Homo sapiens, NCI-H1975, 72 h), 42 nM; in [9], 60 nM; in assay [10] (Homo sapiens, PANC-1, 72 h), 50 nM; in [11] (setting [21]), 19 nM; in assay [12] (Homo sapiens, HT-1080, 72 h) it was 50 nM. Besides, the GI50 in assay [13] (Homo sapiens, Bel-7402, 72 h) was found to be 57 nM; in [14] it was 19 nM; in assay [15], 20 nM; in [16], 50 nM; in [17] (Homo sapiens, HCC827, 72 h) it was 57 nM; in [18], 63 nM. For the same compound, the GI50 in [19] (Homo sapiens, KBM5, 72 h) came to 92 nM; in [20] (Homo sapiens, HeLa, 72 h) it was 90 nM. In addition, the “IC50 HDAC7” value at HDAC7 is recorded as “no activity”.

Take `C/C=C1\NC(=O)c2ccc(SC)c(n2)CNC(=O)C[C@@H](/C=C/CCSC(C)=O)OC(=O)[C@H](C(C)C)NC1=O` [Compound 167]: the concentration for 50% growth inhibition (GI50) was determined as 60 nM in assay [1] (lncap cells); 45 nM in assay [2]; 20 nM in assay [3] (MOLT-4 cells); 20 nM in assay [4] (U937 cells); 97 nM in assay [5]; 30 nM in assay [6] (A549 cells). The 50% growth inhibitory concentration (GI50) was determined as 42 nM in assay [7]; 43 nM in assay [8]; 30 nM in [9] (MCF-7 cells); 70 nM in assay [10] (PANC-1 cells); 91 nM in assay [11] (read-out: GI50 MDA-MB-231, MTT, 72 hours incubation, MDA-MB-231 cells); 100 nM in assay [12] (HT1080 cells). For the same compound, the concentration for 50% growth inhibition (GI50) in assay [13] is 75 nM; in assay [14], 29 nM; in assay [15] (DU145 cells) it was 40 nM; in assay [16] (BGC-823 cells), 40 nM; in [17], 28 nM; in assay [18] it was 33 nM. For the same compound, the results for the concentration for 50% growth inhibition (GI50) in assay [19] and in assay [20] (Hela cells) were 14 nM and 40 nM, respectively. At HDAC7, the “IC50 HDAC7” value is given as “no activity”.

What is called GI50 is the concentration at which growth is held to half of that of the control.
